Experimental data: patent publication US6458960B1, “Sulfonamide derivatives” (Nippon Kayaku Kabushiki Kaisha, priority 1997, dated 2002)
Values after ≈ are worked out from the molar mass of the structure shown.

Key:
[1] = molecular target: T1, microtubule proteins originated from swine brain (Sus scrofa, UniProt P02550+P02554); experiment: Tubulin polymerization inhibitory test (turbidity measurement); format: biochemical; conditions: microtubule proteins 2 mg/ml, GTP 1 mM, 37° C. for 30 min, absorbance at 340 nm; read-out: IC50 (tubulin polymerization inhibition) (converted)
T1 construct: Microtubule proteins was extracted from swine brain by the Shelansky method; from tissue; host or cells: swine brain
Protocol: Tubulin polymerization inhibitory test using microtubule proteins originated from swine brain: Microtubule proteins was extracted from swine brain by the Shelansky method(Tanpakusitu jikkenhou, Zoku-Seikagaku Jikken Kouza, Vol.6, “Structure and Function of Cytoskeleton” (1st Vol.), Tokyo Kagaku Dojin). Polymerization of microtubule proteins was assayed by turbidity measurement.
Change in turbidity can be measured by an absorptiometer. The compounds of the present invention were dissolved in dimethylsulfoxide to prepare their test solutions. To 245 μl of a RB solution containing microtubule proteins(2 mg/ml)and GTP(1 mM) was added 5μl of either an above test solution or dimethylsulfoxide to prepare a sample, which was incubated at 37° C. for 30 min. […] Absorbance at 340 nm of the compound was previously measured.
Inhibitory Rate(%)=[1−(T−Cmin)/(Cmax−Cmin)]×100
where T is absorbance of the incubated sample with a test compound, Cmax is absorbance of the incubated sample without the compound, and Cmin is the non-incubated sample without the compound.

[2] = system: A2780 (Humane Ovarian Cancer Cell); experiment: Anti-tumor in vitro test using A2780 (MTT); format: cell-based; conditions: Homo sapiens, A2780, 72 h, 3 days incubation, absorbance at 540 nm, read-out: IC50 (A2780 growth inhibition)
Protocol: A2780 cells that were suspended on a RPMI 1640 culture medium containing 10% calf serum, penicillin (50 U/ml), and streptomycin (50 μg/ml were seeded in a 96 well flat microplate by 1000 cells (0.2 ml) well, and cultured in a 5% carbon dioxide atmospheric incubator at 37° C. for 1 day. The compounds of the present invention that were dissolved in dimetylsulfoxide anddiluted with a RPMI 1640 containing 10% calf serum to prepare the samples, provided that dimetylsulfoxide was restricted to 0.2% and below in concentration.
The Supernatant liquids of the above A2780 cells wells were removed by aspiration, and then each 0. 2 ml of the prepared samples were added to the wells, which were incubated in a 5% carbon dioxide atmospheric incubator at 37° C. for 3 days. After the incubation, each 0.01 ml of MTT solutions(3-(4,5-dimethylthiazole-2-yl)-2,5-dipheny-ltetra zolium bromide, 5 mg/ml) were added to the wells, which were incubated for another 2 hrs. After the supernatant liquids in the wells were removed by aspiration, the formazans formed in the wells were dissolved in 0.1 ml of dimetylsulfoxide, and absorbances at 540 nm were measured by a micro plate reader to determine indices of live cells counts in the wells.
Inhibitory Rate(%)=[(C−T)/C]×100
where T is absorbance in the well with a test compound and C is absorbance in the well without the compound.

[3] = system: collagen-induced arthritis in mice; experiment: Prophylactic experiment of collagen-induced arthritis in mice; format: in vivo; conditions: last day of test
Protocol: The suspension of M. tuberculosis H37RA in Freund […] adjuvant (2 mg/ml) was mixed with 0.3% typeII collagen (extracted from bovine articular cartilage, Collagen Gijutsu KensyU Kai) in their equal amounts to form an emulsion, 0.1 ml of which was injected subcutaneously into the base of the tail of mice to sensitize it. After twenty-one days, 0.3% type II collagen was diluted with physiological saline solution to the one sixth concentration of the solution, 0.2 ml of which was injected intraperitoneally to sensitize secondarily. The mice that the first sensitizations caused to fall into arthritis were excluded from the test. The suspensions of the compounds(in the Example 13, 27, and 28) in 0.5% sodium carboxy methylcellulose (CMC—Na) were administrated orally to the test group mice once a day for 5 weeks from the day after the second sensitization. 0.5% CMC—Na solutions were administrated to the control group mice to be compared with. Each group was composed of eight mice. […] Scores and their standards are as follows.
1: Tumefaction or rubor in only one finger(or heel)
2: Tumefaction or rubor in two or above fingers (or heels) or in parts of fore (or hind) paw(s)
3: Tumefaction or rubor in the wholes of fore (or hind) paw(s) including joints
4: Ankylosis in the joints of finger(s) (or heel(s)) or fore (or hind) paw(s)

[4] = 50 mg/kg orally once a day for 5 weeks

T1 sequence (P02550 whole entry): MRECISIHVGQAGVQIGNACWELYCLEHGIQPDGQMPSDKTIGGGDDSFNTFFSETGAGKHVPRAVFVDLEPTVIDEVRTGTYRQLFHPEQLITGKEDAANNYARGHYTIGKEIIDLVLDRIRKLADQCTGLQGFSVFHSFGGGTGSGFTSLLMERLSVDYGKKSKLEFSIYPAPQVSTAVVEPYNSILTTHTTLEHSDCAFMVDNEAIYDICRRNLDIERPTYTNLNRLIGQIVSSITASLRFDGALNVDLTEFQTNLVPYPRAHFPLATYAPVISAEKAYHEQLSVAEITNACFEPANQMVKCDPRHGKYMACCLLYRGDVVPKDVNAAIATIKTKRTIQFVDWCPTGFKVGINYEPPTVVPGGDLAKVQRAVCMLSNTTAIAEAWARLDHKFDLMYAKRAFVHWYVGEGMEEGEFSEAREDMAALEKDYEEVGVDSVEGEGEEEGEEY
T1 sequence (P02554 whole entry): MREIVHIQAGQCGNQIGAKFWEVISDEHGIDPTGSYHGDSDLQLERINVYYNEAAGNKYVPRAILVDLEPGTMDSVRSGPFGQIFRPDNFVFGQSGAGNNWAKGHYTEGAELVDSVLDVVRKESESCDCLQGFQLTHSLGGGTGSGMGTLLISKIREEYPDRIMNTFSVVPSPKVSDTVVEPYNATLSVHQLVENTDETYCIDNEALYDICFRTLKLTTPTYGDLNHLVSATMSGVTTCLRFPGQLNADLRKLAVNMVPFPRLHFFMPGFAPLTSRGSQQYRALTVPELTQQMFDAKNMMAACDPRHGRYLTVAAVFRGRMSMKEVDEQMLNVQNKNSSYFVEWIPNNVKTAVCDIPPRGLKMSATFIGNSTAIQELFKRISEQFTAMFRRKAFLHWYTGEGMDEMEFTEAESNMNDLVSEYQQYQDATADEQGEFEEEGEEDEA

COc1ccc(S(=O)(=O)Nc2ccccc2NC(=O)C2CSCN2)cc1.Cl (racemic) [Example 15, (±)-N-[2-(4-Methoxybenzenesulfonamide)phenyl]-4-thiazolidine Carboxamide HCl Salt]
IC50 [1]: 4.3 µM | IC50 [2]: 0.025 mg/L

COc1ccc(S(=O)(=O)Nc2ccccc2NC(=O)C2CCCCN2)cc1.Cl (racemic) [Example 20, (±)-N-[2-4-Methoxybenzenesulfonamide)phenyl]-2piperidine Carboxamide HCl Salt]
IC50 [2]: 6.8 mg/L

COc1ccc(S(=O)(=O)Nc2ccccc2NC(=O)c2cnoc2C)cc1 [Example 1, N-[2-(4-Methoxybenzenesulfonamide)phenyl]-5-methyl-4-isoxazole Carboxamide]
IC50 [1]: 3.1 µM | IC50 [2]: 0.023 mg/L (≈ 0.0594 µM)

COc1ccc(S(=O)(=O)Nc2ccccc2NC(=O)c2cn(C)nc2C)cc1 [Example 2, N-[2-(4-Methoxybenzenesulfonamide)phenyl]-3-dimethyl-4-(1H-pyrazole)carboxamide]
IC50 [1]: 89.9 µM | IC50 [2]: 0.58 mg/L (≈ 1.45 µM)

COc1ccc(S(=O)(=O)Nc2ccccc2NC(=O)c2csc(C)n2)cc1 [Example 3, N-[2-(4-Methoxybenzenesulfonamide)phenyl]-2-methyl-4-thiazole Carboxamide]
IC50 [1]: 94.2 µM | IC50 [2]: 0.22 mg/L (≈ 0.545 µM)

COc1ccc(S(=O)(=O)Nc2ccccc2NC(=O)c2csnc2C)cc1 [Example 4, N-[2-(4-Methoxybenzenesulfonamide)phenyl]-3-methyl-4-isothiazole Carboxamide]
IC50 [1]: 3.47 µM | IC50 [2]: 0.017 mg/L (≈ 0.0421 µM)

COc1ccc(S(=O)(=O)Nc2ccccc2NC(=O)c2nc(C)oc2C)cc1 [Example 5, N-[2-(4-Methoxybenzenesulfonamide)phenyl]-2,5-dimethyl-4-oxazole Carboxamide]
IC50 [2]: 7.2 mg/L (≈ 17.9 µM)

COc1ccc(S(=O)(=O)Nc2ccccc2NC(=O)c2cn(C)cn2)cc1 [Example 6, N-[2-(4-Methoxybenzenesulfonamide)phenyl]-1-methyl-1H-imidazole-4-carboxamide]
IC50 [1]: 101 µM | IC50 [2]: 0.14 mg/L (≈ 0.362 µM)

Cc1ccc(S(=O)(=O)Nc2ccccc2NC(=O)c2cnoc2C)cc1 [Example 7, N-[2-(p-Toluenesulfonamide)phenyl]-5-methyl-4-isoxazole Carboxamide]
IC50 [1]: 13.7 µM | IC50 [2]: 0.2 mg/L (≈ 0.538 µM)

Cc1oncc1C(=O)Nc1ccccc1NS(=O)(=O)c1ccccc1 [Example 8, N-[2-(Benzenesulfonamide)phenyl]-5-methyl-4-isoxazole Carboxamide]
IC50 [1]: 644 µM | IC50 [2]: 6.7 mg/L (≈ 18.7 µM)

Cc1oncc1C(=O)Nc1ccccc1NS(=O)(=O)c1ccc(F)cc1 [Example 9, N-[2-(4-Fluorobenzenesulfonamide)phenyl]-5-methyl-4-isoxazole Carboxamide]
IC50 [1]: 400 µM | IC50 [2]: 13 mg/L (≈ 34.6 µM)

COc1ccc(S(=O)(=O)Nc2ccccc2NC(=O)c2cnoc2C)cc1OC [Example 11, N-[2-(3,4-Dimethoxybenzenesulfonamide)phenyl]-5-methyl-4-isoxazole Carboxamide]
IC50 [1]: 359 µM | IC50 [2]: 0.68 mg/L (≈ 1.63 µM)

COc1ccc(S(=O)(=O)Nc2ccccc2NC(=O)[C@@H]2CCCN2)cc1.Cl [Example 12, N-[2-(4-Methoxybenzenesulfonamide)phenyl]-(L)-prolinamide HCl Salt]
IC50 [2]: 9.7 mg/L

COc1ccc(S(=O)(=O)Nc2ccccc2NC(=O)c2c(C)noc2C)cc1 [Example 13, N-[2-(4-Methoxybenzenesulfonamide)phenyl]-3,5-dimethyl-4-isoxazole Carboxamide]
IC50 [1]: 3.49 µM | Averaged score (arthritis, 0 to 4 per limb, maximum 16) ([3]; 25 mg/kg orally once a day for 5 weeks): 2.3 ± 0.8 | Averaged score (arthritis, 0 to 4 per limb, maximum 16) [3, 4]: 0.4 ± 0.4 | IC50 [2]: 0.01 mg/L (≈ 0.0249 µM)

CCc1oncc1C(=O)Nc1ccccc1NS(=O)(=O)c1ccc(OC)cc1 [Example 14, N-[2-(4-Methoxybenzenesulfonamide)phenyl]-5-ethyl-4-isoxazole Carboxamide]
IC50 [1]: 4.11 µM | IC50 [2]: 0.036 mg/L (≈ 0.0897 µM)

COc1ccc(S(=O)(=O)Nc2ccccc2NC(=O)[C@H]2CCCN2)cc1.Cl [Example 17]
IC50 [2]: 1.4 mg/L

COc1ccc(S(=O)(=O)Nc2ccccc2NC(=O)c2ncoc2C)cc1 [Example 21, N-[2-(4-Methoxybenzenesulfonamide)phenyl]-5-methyl-4-oxazole Carboxamide]
IC50 [1]: 12.1 µM | IC50 [2]: 0.079 mg/L (≈ 0.204 µM)

COc1ccc(S(=O)(=O)Nc2ccccc2NC(=O)C2CCCCC2)cc1 [Example 22, N-[2-(4-Methoxybenzenesulfonamide)phenyl]-cyclohexyl Carboxamide]
IC50 [1]: 4.89 µM | IC50 [2]: 0.14 mg/L (≈ 0.36 µM)

COc1ccc(S(=O)(=O)Nc2ccccc2NC(=O)C2CC2)cc1 [Example 23, N-[2-(4-Methoxybenzenesulfonamide)phenyl]-cyclopropyl Carboxamid]
IC50 [1]: 3.46 µM | IC50 [2]: 0.006 mg/L (≈ 0.0173 µM)

COc1ccc(S(=O)(=O)Nc2ccccc2NC(=O)C2CCC2)cc1 [Example 24, N-(2-(4-Methoxybenzenesulfonamide)phenyl]-cyclobutyl Carboxamid]
IC50 [1]: 3.19 µM | IC50 [2]: 0.006 mg/L (≈ 0.0166 µM)

COc1ccc(S(=O)(=O)Nc2ccccc2NC(=O)C2CCCC2)cc1 [Example 25]
IC50 [1]: 4.14 µM | IC50 [2]: 0.05 mg/L (≈ 0.134 µM)

COc1ccc(S(=O)(=O)Nc2ccccc2NC(=O)c2cccn2C)cc1 [Example 26, N-[2-(4-Methoxybenzenesulfonamide)phenyl]-N-methyl-2-pyrrole Carboxamide]
IC50 [1]: 4.93 µM | IC50 [2]: 0.034 mg/L (≈ 0.0882 µM)

CCc1noc(C)c1C(=O)Nc1ccccc1NS(=O)(=O)c1ccc(OC)cc1 [Example 27, N-[2-(4-Methoxybenzenesulfonamide)phenyl]-3-ethyl-5-methyl-4-isoxazole Carboxamide]
IC50 [1]: 4.45 µM | Averaged score (arthritis, 0 to 4 per limb, maximum 16) [3, 4]: 1.7 ± 1.1 | IC50 [2]: 0.034 mg/L (≈ 0.0818 µM)

CCc1onc(C)c1C(=O)Nc1ccccc1NS(=O)(=O)c1ccc(OC)cc1 [Example 28, N-[2-(4-Methoxybenzenesulfonamide)phenyl]-5-ethyl-3-methyl-4-isoxazole Carboxamide]
IC50 [1]: 3.13 µM | Averaged score (arthritis, 0 to 4 per limb, maximum 16) [3, 4]: 3.0 ± 1.1 | IC50 [2]: 0.013 mg/L (≈ 0.0313 µM)

CCc1noc(CC)c1C(=O)Nc1ccccc1NS(=O)(=O)c1ccc(OC)cc1 [Example 29, N-[2-(4-Methoxybenzenesulfonamide)phenyl]-3,5-diethyl-4-isoxazole Carboxamide]
IC50 [1]: 9.2 µM | IC50 [2]: 0.14 mg/L (≈ 0.326 µM)

COc1ccc(S(=O)(=O)Nc2ccccc2NC(=O)c2c(C)noc2C(C)C)cc1 [Example 30, N-[2-(4-Methoxybenzenesulfonamide)phenyl]-5-isopropyl-3-methyl-4-isoxazole Carboxamide]
IC50 [1]: 7.68 µM | IC50 [2]: 0.16 mg/L (≈ 0.373 µM)

COc1ccc(S(=O)(=O)Nc2ccccc2NC(=O)c2c(-c3ccccc3)noc2C)cc1 [Example 31, N-[2-(4-Methoxybenzenesulfonamide)phenyl]-5-methyl-3-phenyl-4-isoxazole Carboxamide]
IC50 [2]: 0.3 mg/L (≈ 0.647 µM)

COc1ccc(S(=O)(=O)Nc2ccccc2NC(=O)c2c(C)noc2-c2ccccc2)cc1 [Example 32, N-[2-(4-Methoxybenzenesulfonamide)phenyl]-3-methyl-5-phenyl-4-isoxazole Carboxamide]
IC50 [2]: 0.62 mg/L (≈ 1.34 µM)
